Data as given in patent US20030119904A1, “Acetyl L-carnitine salt with a dicarboxilic organic acid and process for preparing same” (priority 2001, published 2003).
Where a name gives a salt, the structure may show the parent alone.

How the values were obtained:
[1] = Hygroscopicity: exposure of powder or granules to relative humidity at 25° C. for 24 hours; format: physicochemical
Experimental: By “hygroscopic” is meant herein the bothersome property shown by most of L-carnitine and alkanoyl L-carnitine salts (particularly by their “inner salts”) to undergo, when they occur as powders or granules, significant alteration of their flowability due to their clotting, agglomeration or even deliquescence, following exposure to an environment of relative humidity […] 50-60%, at 25° C., for 24 hours.

[2] = known from prior art / marketed product; cited from earlier work

Row | SMILES | hygroscopicity of the isolated solid ([1]; non-hygroscopic = withstands relative humidity of at least 60%, as powder or granules, without clotting, agglomeration or deliquescence) | relative humidity withstood without loss of flowability ([1]; powder or granules) | hygroscopicity (prior art statement) [2]
1 | CC(=O)O[C@H](CC(=O)O)C[N+](C)(C)C.O=C([O-])/C=C/C(=O)O [ALCFH, acetyl L-carnitine acid fumarate] | non-hygroscopic | ≥ 60% | –
2 | C[N+](C)(C)C[C@H](O)CC(=O)O.O=C([O-])/C=C/C(=O)O [L-carnitine acid fumarate] | – | – | non-hygroscopic
3 | CC(=O)O[C@H](CC(=O)[O-])C[N+](C)(C)C [acetyl L-carnitine inner salt] | – | – | high hygroscopicity
